Reference: patent US9393271B2, “GHRH agonists for islet cell transplantation and function and the treatment of diabetes” (UNIVERSITY OF MIAMI, priority 2012, dated 2016)
Each block holds one compound with its values, some of them ahead of it. Non-standard residues stand in square brackets, D forms with d. Residues, ends and D or L forms follow the SMILES beside them. *: point of attachment. NMeY = CN[C@@H](Cc1ccc(O)cc1)C(=O)O; Agmatine = N=C(N)NCCCCN*; Nle = CCCC[C@H](N)C(=O)O; Orn = NCCC[C@H](N)C(=O)O; Abu = CC[C@H](N)C(=O)O

Assays:
[1] = target: T1, GHRH receptor (human pituitary membrane homogenates) (Homo sapiens, UniProt Q02643); assay: GHRH receptor binding, ligand competition with 125I-labeled [His1,Nle27]hGHRH(1-32)NH2 (Table 6); conditions: GHRH(1-29) = 1
T1 sequence (Q02643 23-423): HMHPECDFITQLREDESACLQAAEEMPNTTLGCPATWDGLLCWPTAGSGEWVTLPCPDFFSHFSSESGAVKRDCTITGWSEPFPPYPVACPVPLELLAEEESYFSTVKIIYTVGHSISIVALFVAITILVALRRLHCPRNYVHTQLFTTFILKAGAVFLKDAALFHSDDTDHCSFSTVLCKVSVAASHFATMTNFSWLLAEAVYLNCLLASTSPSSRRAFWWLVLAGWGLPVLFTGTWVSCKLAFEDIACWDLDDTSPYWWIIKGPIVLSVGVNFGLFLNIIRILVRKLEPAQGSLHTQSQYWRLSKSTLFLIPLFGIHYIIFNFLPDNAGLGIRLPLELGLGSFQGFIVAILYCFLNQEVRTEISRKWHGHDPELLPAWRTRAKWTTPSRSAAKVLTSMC

[2] = target: T1, GHRH receptor (human pituitary membrane homogenates); assay: GHRH receptor binding, ligand competition with 125I-labeled JV-1-42 (Table 5); conditions: for Relative affinitiy (Binding potency) vs GHRH: GHRH(1-29) = 1
rat pituitary cells = assay: GH release in superfused rat pituitary cell system; assay type: cell-based; conditions: 1 nM; for GH Response (ng/ml) Average / GH Response (ng/ml) 1 / GH Response (ng/ml) 2 / GH Response (ng/ml) 3: 3-min pulse; for GH Response (ng/ml) Average: average of runs; for GH Response (ng/ml) 1: run 1; for GH Response (ng/ml) 2: run 2; for GH Response (ng/ml) 3: run 3
Method: Growth hormone releasing activity. Growth hormone releasing was assayed by using a superfused rat pituitary cell system as described in S. Vigh and A. V. Schally, Peptides 5, Suppl: 241-347, 1984. The new synthetic peptide analog of hGHRH P20356 and JI-38 (as control) were administered for 3 minutes (1 mL perfusate) at 1 nM concentration as shown below. Fractions of 1 ml are collected and the GH content in each was determined by ELISA.
Pituitary cells from 2 male rats were used for each channel of the superfusion system. The cells were exposed to 3-min pulses of the new GHRH agonists or to JI-38 as standard every 30 min. Outflowing samples of each channel (1 ml) were collected every 3 min, and GH levels were determined by ELISA.

[3] = target: T1, GHRH receptor (human pituitary membrane homogenates); assay: GHRH receptor binding, ligand competition with 125I-labeled JV-1-42 (Table 7); design: Normal human pituitaries were purchased from the National Hormone and Peptide Program; tissue National Hormone and Peptide Program (A. F. Parlow, Harbor-UCLA Medical Center, Torrance, Calif.); host or cells: normal human pituitary, membrane fraction / homogenate; conditions: JI-38 = 1
GH level = assay: In vivo endocrine activity (GH release), subcutaneous administration; conditions: rat, s.c.
Method: Subcutaneous Administration. Adult male rats were used and anesthetized with pentobarbital (6 mg/100 g, b.w.), by i.p. injection. […] Blood samples were taken from the jugular vein 5, 15 and/or 30 minutes after the injection. The blood samples were centrifuged, plasma was removed and the GH level was measured by ELISA. The results are summarized in terms of potency in Table 9.

[4] = fraction 1 (P-20356) / 21 (JI-38)
[5] = fraction 2 (P-20356) / 22 (JI-38)
[6] = fraction 3 (P-20356) / 23 (JI-38)
[7] = fraction 4 (P-20356) / 24 (JI-38)
[8] = fraction 5 (P-20356) / 25 (JI-38)

Relative affinitiy (Binding potency) vs GHRH [1]: 1
Relative affinitiy (Binding potency) vs GHRH [2]: 1
Compound: CC[C@H](C)[C@H](NC(=O)[C@H](C)NC(=O)[C@H](CC(=O)O)NC(=O)[C@H](C)NC(=O)[C@@H](N)Cc1ccc(O)cc1)C(=O)N[C@@H](Cc1ccccc1)C(=O)N[C@H](C(=O)N[C@@H](CC(N)=O)C(=O)N[C@@H](CO)C(=O)N[C@@H](Cc1ccc(O)cc1)C(=O)N[C@@H](CCCNC(=N)N)C(=O)N[C@@H](CCCCN)C(=O)N[C@H](C(=O)N[C@@H](CC(C)C)C(=O)NCC(=O)N[C@@H](CCC(N)=O)C(=O)N[C@@H](CC(C)C)C(=O)N[C@@H](CO)C(=O)N[C@@H](C)C(=O)N[C@@H](CCCNC(=N)N)C(=O)N[C@@H](CCCCN)C(=O)N[C@@H](CC(C)C)C(=O)N[C@@H](CC(C)C)C(=O)N[C@@H](CCC(N)=O)C(=O)N[C@@H](CC(=O)O)C(=O)N[C@H](C(=O)N[C@@H](CCSC)C(=O)N[C@@H](CO)C(=O)N[C@@H](CCCNC(=N)N)C(N)=O)[C@@H](C)CC)C(C)C)[C@@H](C)O [GHRH(1-29), hGHRH(1-29)NH2, reference compound]

Compound: CCCC[C@H](NC(=O)[C@@H](NC(=O)[C@H](CC(=O)O)NC(=O)[C@H](CCC(N)=O)NC(=O)[C@H](CC(C)C)NC(=O)[C@H](CC(C)C)NC(=O)[C@H](CCCN)NC(=O)[C@H](CCCNC(=N)N)NC(=O)[C@H](C)NC(=O)[C@H](CO)NC(=O)[C@H](CC(C)C)NC(=O)[C@H](CCC(N)=O)NC(=O)[C@H](CC)NC(=O)[C@H](CC(C)C)NC(=O)[C@@H](NC(=O)[C@H](CCCN)NC(=O)[C@H](CCCNC(=N)N)NC(=O)[C@H](Cc1ccc(O)cc1)NC(=O)[C@H](CO)NC(=O)[C@H](CCC(N)=O)NC(=O)[C@@H](NC(=O)[C@H](Cc1ccccc1)NC(=O)[C@@H](NC(=O)[C@H](C)NC(=O)[C@H](CC(=O)O)NC(=O)[C@H](C)NC(=O)[C@H](Cc1ccc(O)cc1)NC)[C@@H](C)CC)[C@@H](C)O)C(C)C)[C@@H](C)CC)C(=O)N[C@@H](CC(=O)O)C(=O)NCCCCNC(=N)N [Peptide P-20356, [N—Me-Tyr^1, Gln^8, Orn^12, Abu^15, Orn^21, Nle^27, Asp^28, Agm^29]hGHRH(1-29)] (H-[NMeY]ADAIFTQSYR[Orn]VL[Abu]QLSAR[Orn]LLQDI[Nle]D-Agmatine)
GH Response (ng/ml) Average (rat pituitary cells; [4]): 52.45 ng/mL
GH Response (ng/ml) Average (rat pituitary cells; [5]): 337.48 ng/mL
GH Response (ng/ml) Average (rat pituitary cells; [6]): 556.46 ng/mL
GH Response (ng/ml) Average (rat pituitary cells; [7]): 334.99 ng/mL
GH Response (ng/ml) Average (rat pituitary cells; [8]): 197.91 ng/mL
GH Response (ng/ml) 1 (rat pituitary cells; [4]): 49.98 ng/mL
GH Response (ng/ml) 1 (rat pituitary cells; [5]): 310.58 ng/mL
GH Response (ng/ml) 1 (rat pituitary cells; [6]): 491.01 ng/mL
GH Response (ng/ml) 1 (rat pituitary cells; [7]): 399.95 ng/mL
GH Response (ng/ml) 1 (rat pituitary cells; [8]): 200.64 ng/mL
GH Response (ng/ml) 2 (rat pituitary cells; [4]): 54.99 ng/mL
GH Response (ng/ml) 2 (rat pituitary cells; [5]): 325.76 ng/mL
GH Response (ng/ml) 2 (rat pituitary cells; [6]): 602.1 ng/mL
GH Response (ng/ml) 2 (rat pituitary cells; [7]): 270.02 ng/mL
GH Response (ng/ml) 2 (rat pituitary cells; [8]): 195.18 ng/mL
GH Response (ng/ml) 3 (rat pituitary cells; fraction 1): 52.37 ng/mL
GH Response (ng/ml) 3 (rat pituitary cells; fraction 2): 376.11 ng/mL
GH Response (ng/ml) 3 (rat pituitary cells; fraction 3): 576.26 ng/mL
GH-releasing potency in vitro relative to JI-38 (rat pituitary cells; superfused rat pituitary cells): about 3 times
Relative affinitiy (Binding potency) vs JI-38 [3]: 16.11
Stimulation of growth hormone levels after s.c. administration (comparison in words) (GH level): stimulated greater growth hormone levels than hGHRH or JI-38
Relative affinitiy (Binding potency) vs GHRH [2]: 406.0
Relative affinitiy (Binding potency) vs JI-38 ([2]; JI-38 = 1): 171
